The record followed here is patent US11000033B2, “Ketone or oxime compound, and herbicide” (NISSAN CHEMICAL CORPORATION, priority 2014, dated 2021).

Holding throughout (format): in vivo
Data set [1] has as its system Lolium multiflorum Lam. As to the kind of experiment: Test Example 4: herbicidal effect by soil treatment (symbol K). To be noted: application herbicide amount 320 g/ha. In short, it runs like this: (§1)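 Seeds were sown in sterilized diluvial soil, covered with about 1.5 cm of soil, and the soil surface was sprayed with a water-diluted emulsion of the compound at a predetermined rate. Plants grew in a greenhouse at 25° C. to 30° C.; effects were scored visually 3 weeks after application.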

A further data set has as its system Avena fatua. The data set can be described thus: Test Example 5: herbicidal effect by foliage application, plastic box (symbol I). The conditions noted are these: 320 g/ha, 3 weeks after application. In short, it runs like this:
(§2)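 Leaf-applied emulsion, water-diluted to a preset herbicide dose, on two-week-old seedlings raised in a 25° C. to 30° C. greenhouse; injury rated at 3 weeks using earlier criteria.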

The test system of another data set is corn. The data set can be described thus: Test Example 4: effect on crop by soil treatment (symbol c). The conditions noted are these: application herbicide amount 320 g/ha. An outline of the steps: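 Diluvial soil (sterilized) in boxes; seeds placed spot-wise alongside weed species; ~1.5 cm covering soil. Greenhouse, 25–30° C.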
In the next data set the test system is wheat. As to the kind of experiment: Test Example 5: effect on crop by foliage application, plastic box (symbol e). The conditions noted are these: 320 g/ha, 3 weeks after application. In short, it runs like this:
(§3)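 Plants were raised from seed in a greenhouse (25° C. to 30° C.) after sowing in a plastic box of sterilized diluvial soil.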

Another data set has as its system Cyperus difformis. As to the kind of experiment: Test Example 3: herbicidal effect by foliage application, Wagner pot (symbol E). To be noted: application herbicide amount 320 g/ha. In short, it runs like this: (§4)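 The compound, formulated as an emulsion and diluted with water to a predetermined rate, is applied uniformly to leaves of two-week-old seedlings growing in submerged alluvial soil at 25–30 °C. Rice is included. Each plant is assessed 3 weeks later using defined criteria.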

A further data set relates to rice. As to the kind of experiment: Test Example 4: effect on crop by soil treatment (symbol b). To be noted: application herbicide amount 320 g/ha. An outline of the steps:
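Crop seed is sown in spots together with several weed species in a box of sterilized diluvial soil. It is covered by about 1.5 cm of soil and kept in a greenhouse held between 25° C. and 30° C.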

Data set [2] deals with Lolium multiflorum Lam. As to the kind of experiment: Test Example 5: herbicidal effect by foliage application, plastic box (symbol K). To be noted: 320 g/ha, 3 weeks after application. An outline of the steps:
as §2

In another data set the test system is rice plant. The data set can be described thus: Test Example 5: effect on crop by foliage application, plastic box (symbol b). The conditions noted are these: 320 g/ha, 3 weeks after application. In short, it runs like this: as §3
In data set [3] the test system is Echinochloa crus-galli var. crus-galli. The data set can be described thus: Test Example 3: herbicidal effect by foliage application, Wagner pot (symbol H). To be noted: application herbicide amount 320 g/ha. In short, it runs like this: as §4
In the next data set the test system is Stellaria media. As to the kind of experiment: Test Example 5: herbicidal effect by foliage application, plastic box (symbol P). To be noted: 320 g/ha, 3 weeks after application. An outline of the steps: as §2
The next data set concerns Apera spica-venti. As to the kind of experiment: Test Example 4: herbicidal effect by soil treatment (symbol L). To be noted: application herbicide amount 320 g/ha. An outline of the steps: as §1
In another data set the test system is Alopecurus myosuroides. The data set can be described thus: Test Example 5: herbicidal effect by foliage application, plastic box (symbol J). The conditions noted are these: 320 g/ha, 3 weeks after application. An outline of the steps:
as §2

A further data set relates to Setaria viridis. As to the kind of experiment: Test Example 5: herbicidal effect by foliage application, plastic box (symbol G). To be noted: 320 g/ha, 3 weeks after application. An outline of the steps: as §2
Another data set deals with Scirpus juncoides. The data set can be described thus: Test Example 2: herbicidal activity, application during weed generation in submerged conditions (symbol B). The conditions noted are these: Table 23; application herbicide amount 320 g/ha; grade 0-5 by criteria of Test Example 1. In short, it runs like this:
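Treatment timing was the one- to two-leaf stage, with diluted emulsifiable compound dropped onto the paddy water (depth 4 cm) over alluvial soil. All three species grew from a mixed sowing in a 25° C. to 30° C. greenhouse. Injury was judged by eye 3 weeks on.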

Data set [4] has as its system Echinochloa crus-galli var. crus-galli. The data set can be described thus: Test Example 4: herbicidal effect by soil treatment (symbol H). The conditions noted are these: application herbicide amount 320 g/ha. An outline of the steps: as §1

Molecules are shown by their SMILES.

Take `CON=C(C)CC1CC(O)=C(c2c(C)cc(-c3ccccc3)cc2C)C1=O` (centres unmarked) [6-015]: the “K: Lolium multiflorum Lam., herbicidal effect grade” value in the data set on Lolium multiflorum Lam. [1] and in the data set with Lolium multiflorum Lam. [2] was 5 (Herbicidal ratio of 90% or more (almost completely withered)) in each case. Besides, the “I: Avena fatua, herbicidal effect grade” value in the data set with Avena fatua was 4 (Herbicidal ratio of 70% or higher and lower than 90%). Further, the “c: corn, effect on crop grade” value with corn was 5 (Herbicidal ratio of 90% or more (almost completely withered)). For the same compound, the “e: wheat, effect on crop grade” value in the data set with wheat is reported as 0 (Herbicidal ratio of 5% or lower (almost no effect)). In the data set on Cyperus difformis, the “herbicidal effect on E, grade 0-5” value is listed as 5 (Herbicidal ratio of 90% or more (almost completely withered)). In addition, the “b: directly sowed rice plant, effect on crop grade” value with rice and with rice plant was 5 (Herbicidal ratio of 90% or more (almost completely withered)) in each case. Moreover, the “herbicidal effect on H (Echinochloa crus-galli var. crus-galli), grade 0-5” value in data set [3] is on record as 5 (Herbicidal ratio of 90% or more (almost completely withered)). Also, the “P: Stellaria media, herbicidal effect grade” value in the data set on Stellaria media was 3 (Herbicidal ratio of 40% or higher and lower than 70%). Also, the “L: Apera spica-venti, herbicidal effect grade” value in the data set on Apera spica-venti was 5 (Herbicidal ratio of 90% or more (almost completely withered)). In addition, in the data set on Alopecurus myosuroides, the “J: Alopecurus myosuroides, herbicidal effect grade” value is reported as 5 (Herbicidal ratio of 90% or more (almost completely withered)). In addition, the “G: Setaria viridis, herbicidal effect grade” value in the data set with Setaria viridis was 5 (Herbicidal ratio of 90% or more (almost completely withered)). Moreover, the “Herbicidal effect grade, B: Scirpus juncoides” value in the data set on Scirpus juncoides is reported as 5 (Herbicidal ratio of 90% or more (almost completely withered)). In data set [4], the “H: Echinochloa crus-galli var. crus-galli, herbicidal effect grade” value is 5 (Herbicidal ratio of 90% or more (almost completely withered)).

`CC#Cc1cc(C)c(C2=C(O)CC(CC(C)=NOC)C2=O)c(CC)c1` (mixture of isomers) [6-006]: the “K: Lolium multiflorum Lam., herbicidal effect grade” value in the data set with Lolium multiflorum Lam. [1] is 5 (Herbicidal ratio of 90% or more (almost completely withered)); in the data set on Lolium multiflorum Lam. [2], 4 (Herbicidal ratio of 70% or higher and lower than 90%). For the same compound, the “I: Avena fatua, herbicidal effect grade” value in the data set on Avena fatua is 1 (Herbicidal ratio of 5% or higher and lower than 20%). Further, the “c: corn, effect on crop grade” value with corn is recorded as 5 (Herbicidal ratio of 90% or more (almost completely withered)). Besides, in the data set on wheat, the “e: wheat, effect on crop grade” value is on record as 5 (Herbicidal ratio of 90% or more (almost completely withered)). In the data set on Cyperus difformis, the “herbicidal effect on E, grade 0-5” value is given as 5 (Herbicidal ratio of 90% or more (almost completely withered)). Moreover, the “b: directly sowed rice plant, effect on crop grade” value is 5 (Herbicidal ratio of 90% or more (almost completely withered)) in the data set on rice; 4 (Herbicidal ratio of 70% or higher and lower than 90%) in the data set with rice plant. Also, in [3], the “herbicidal effect on H (Echinochloa crus-galli var. crus-galli), grade 0-5” value is 5 (Herbicidal ratio of 90% or more (almost completely withered)). In addition, the “L: Apera spica-venti, herbicidal effect grade” value in the data set with Apera spica-venti is 5 (Herbicidal ratio of 90% or more (almost completely withered)). Also, the “J: Alopecurus myosuroides, herbicidal effect grade” value with Alopecurus myosuroides is given as 5 (Herbicidal ratio of 90% or more (almost completely withered)). The “G: Setaria viridis, herbicidal effect grade” value in the data set on Setaria viridis is 3 (Herbicidal ratio of 40% or higher and lower than 70%). In addition, in the data set on Scirpus juncoides, the “Herbicidal effect grade, B: Scirpus juncoides” value was 5 (Herbicidal ratio of 90% or more (almost completely withered)). Besides, the “H: Echinochloa crus-galli var. crus-galli, herbicidal effect grade” value in [4] is listed as 5 (Herbicidal ratio of 90% or more (almost completely withered)).
